This is an account of results in PMC8318231, “Rate-of-Kill (RoK) assays to triage large compound sets for Chagas disease drug discovery: Application to GSK Chagas Box” (PLoS Neglected Tropical Diseases, 2021).

This assay deals with T. cruzi intracellular amastigotes in H9c2 cells. Briefly: Rate-of-Kill (RoK) high-content imaging assay, amastigotes per cell (AM/CELL) and curve descriptors. The class given is cell-based, Trypanosoma cruzi. Also noted: key to ME_24h / ME_48h / ME_72h: % reduction in parasite burden (cidal response); t50pct_MCC50 / t50pct_Cmax: unit not given here. The note with it: for ME_24h: 24h; for ME_48h: 48h; for ME_72h: 72h; for AM/CELL NORM: figure 4 A; for tlag_Cmax / t50pct_Cmax: at Cmax; for t50pct_MCC50 / tlag_MCC50: at MCC50, figure 5; for ME_24h (%): maximum effect at 24 h; for ME_24h (%) / ME_48h (%) / ME_72h (%): RoK assay; for ME_48h (%): maximum effect at 48 h; for ME_72h (%): maximum effect at 72 h; for ME 24h (maximum effect at 24 hours, intracellular amastigotes): maximum percentage of parasite burden reduction reached by any concentration. The method, boiled down: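 Readouts at each time point are amastigotes per cell and host nuclei count (cytotoxicity), from DRAQ5 high-content imaging. Infection: trypomastigotes on H9c2 at MOI 8 for 18 h. Dosing was 5 μM single point or 11 points, 1/3 steps from 50 μM. Effect scaled between 4 h infected and uninfected controls.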

The structures appear in SMILES notation.

For the compound `COc1ccc(NS(=O)(=O)c2cc(NC(=O)Cc3ccc(C)cc3)ccc2N2CCOCC2)cc1` [TCMDC-143313], the “tlag_Cmax” value stood at 72.0 h, the t50pct_MCC50 is 72, the tlag_MCC50 came out at 72 and the “ME_24h (%)” value was -207.8%. The “ME_48h (%)” value is recorded as -855.3%; the “ME_72h (%)” value is recorded as -1487.8%; the “ME 24h (maximum effect at 24 hours, intracellular amastigotes)” value came to 23.7828%. For the setting “figure 5”, this compound had an ME_24h of -207.804, an ME_48h of -855.253, an ME_72h of -1487.77 and a t50pct_Cmax of 72. Also, where the note is “figure 5”, the tlag_Cmax amounted to 72, the MCC50 is 50 µM and the MCCE is 0.2058. For the same compound, for the setting “RoK curve descriptor”, the “MCCE” value is 0.2 µM. In addition, for the setting “Time 4”, the “AM/CELL NORM” value is recorded as -12.1404. In addition, the “AM/CELL NORM” value (Time 24) is -266.8. The “AM/CELL NORM” value (Time 48) is given as -1156.6. Moreover, the “AM/CELL NORM” value (Time 72) is recorded as -1899.09.
Take `COc1cc(NC(=O)Nc2cccc(CNC(=O)OC3CCCCC3)c2)ccc1-c1cnco1` [TCMDC-143376]: the “tlag_Cmax” value came to 24.0 h, the t50pct_MCC50 was determined as 72, the tlag_MCC50 is given as 72 and the “ME_24h (%)” value is -229.2%. Also, the “ME_48h (%)” value was -76.1%; the “ME_72h (%)” value is reported as -0.2%; the “ME 24h (maximum effect at 24 hours, intracellular amastigotes)” value turned out to be 42.5513%. Under “figure 5”, this compound registered an ME_24h of -229.157, an ME_48h of -76.0857, an ME_72h of -0.198 and a t50pct_Cmax of 72. Where the note is “figure 5”, the tlag_Cmax stood at 24, the MCC50 amounted to 50 µM and the MCCE is listed as 0.6173. Also, the “MCCE” value (RoK curve descriptor) is recorded as 0.6 µM. In addition, the “AM/CELL NORM” value (Time 4) is -2.926. Moreover, where the note is “Time 24”, the “AM/CELL NORM” value is recorded as -229.157. In addition, the “AM/CELL NORM” value (Time 48) was -76.0857. Besides, the “AM/CELL NORM” value (Time 72) is recorded as -16.3246.
